The values below come from PubChem BioAssay (NCI).

Assay in all cases: NCI tumour cell line growth inhibition, 48 h
The test system of test [1] is CAKI-1 renal.
Test [2] has as its system HOP-62 NSCLC.
The subject of test [3] is KM12 colon.
The subject of test [4] is M14 melanoma.
Test [5] deals with NCI-H460 lung.
Test [6] has as its system OVCAR-5 ovarian.
Test [7] relates to RPMI-8226 leukemia.
The test system of test [8] is SF-295 CNS.
Test [9] deals with SNB-75 CNS.
The test system of test [10] is U251 CNS.

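Five concentrations, 48 hours, 96-well plates. Abbreviation: GI50, concentration required for 50% inhibition of growth. TGI: concentration producing complete growth inhibition.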 Bounds are passed on as bounds.

Consider `O=C(Cc1ccccc1)NN1C(=O)C(Cl)C1c1cc(Br)ccc1O` (stereo not given), for which the TGI in test [1] is 60.7 µM; in [2], 52.9 µM; in test [3], more than 100 µM; in test [4], 19 µM; in [5] it was more than 100 µM; in test [6] it was more than 100 µM. Moreover, the TGI is more than 100 µM in test [7], 94.3 µM in test [8], 34.4 µM in [9] and 32.6 µM in [10].
As for `COC(=O)C1=CNC=C(C(=O)OC)C1C1=CC(=O)C(C)=CC1=O`, the GI50 was 6.71 µM in test [1]; 14.8 µM in [2]; 17.1 µM in test [3]; 15.2 µM in [4]; 14.2 µM in test [5]; 17.7 µM in [6]. In addition, the GI50 in test [7] was 2.9 µM; in test [8], 19.7 µM; in test [9], 16 µM; in test [10] it was 16.5 µM. Further, the TGI in test [1] worked out at 19.4 µM; in test [2] it was 28.2 µM; in test [3], 31.8 µM; in [4], 29.1 µM; in test [5] it was 30.5 µM; in test [6], 31.7 µM. For the same compound, the TGI is 7.5 µM in [7], 40.1 µM in test [8], 42 µM in [9] and 32.1 µM in test [10].
On to `COC(=O)[C@@H](C)CNS(=O)(=O)N(c1cc(C(F)(F)F)cc(C(F)(F)F)c1)C1CCN(Cc2ccc(F)cc2)CC1`, for which the GI50 was 7.23 µM in test [1]; 15 µM in test [2]; 4.92 µM in test [3]; 3.75 µM in [4]; 7.13 µM in test [5]; 15.8 µM in test [6]. In addition, the GI50 in test [7] was 7.57 µM; in [8], 10.5 µM; in test [9], 6.24 µM; in test [10] it was 10.2 µM. The TGI in test [1] was found to be 22.3 µM; in test [2], 29 µM; in test [3], 17.6 µM; in test [4], 15 µM; in test [5], 22.1 µM; in [6], 29.7 µM. Besides, the TGI in test [7] turned out to be 25.6 µM; in [8] it was 24.5 µM; in test [9], 20.4 µM; in test [10], 27.9 µM.
As to `COc1ccccc1CNCCCN1C(=O)c2ccc3c4c(ccc(c24)C1=O)C(=O)N(CCCOCCCCOCCCN)C3=O`, the GI50 in [1] is 1.83 µM; in [2], 1.32 µM; in test [3], 1.26 µM; in test [4] it was 1.42 µM; in test [5] it was 0.597 µM; in test [6], 1.88 µM. In addition, the GI50 in test [7] was 1.72 µM; in [8], 1.42 µM; in test [9], 1.79 µM; in [10] it was 1.23 µM. Further, the TGI was 5.13 µM in test [1]; 2.73 µM in test [2]; 2.79 µM in test [3]; 4.82 µM in test [4]; 2.17 µM in test [5]; 3.61 µM in test [6]. Also, the TGI in test [7] is 5.21 µM; in test [8], 3.43 µM; in [9] it was 3.6 µM; in [10], 2.69 µM.
For `COC1=CC(=O)c2nc(-c3cccc(C)n3)[nH]c2C1=O`, the GI50 was 22 µM in test [1]; 18.7 µM in [2]; 35.4 µM in test [3]; 35.6 µM in [4]; 17.1 µM in [5]; 30.9 µM in test [6]. Further, the GI50 in test [7] is 27 µM; in [8] it was 28.4 µM; in [9] it was 21.2 µM; in [10], 20.4 µM. The TGI in test [1] was 54.9 µM; in [2], 35.9 µM; in [3], more than 100 µM; in test [4] it was more than 100 µM; in test [5] it was 35.2 µM; in [6] it was more than 100 µM. Further, the TGI was more than 100 µM in test [7], 85.2 µM in test [8], 43.6 µM in test [9] and 41.7 µM in [10].
With `Nn1c(=O)n(Cc2ccccc2)n(-c2ccccc2)c1=O`, the TGI in test [1], in [2], in test [3], in test [4], in test [5] and in [6] was more than 100 µM throughout. The TGI in [7], in [8], in test [9] and in test [10] was more than 100 µM throughout.
As to `C[C@@H]1CC(=O)C2CCCC1C2=O` (stereo not given in full), the TGI in test [1], in [2], in [3], in test [4], in [5] and in test [6] was more than 100 µM throughout. In addition, the TGI in test [7], in [8], in [9] and in test [10] was more than 100 µM each time.
For the compound `NS(=O)(=O)c1ccc(N=Nc2c(O)[nH]c3ccc(-c4cnco4)cc23)cc1`, the GI50 in test [1] was more than 25 µM; in test [2], more than 25 µM; in test [3], 6.86 µM; in [4], more than 25 µM; in [5], 14.3 µM; in test [6], more than 25 µM. The GI50 in test [7] was more than 25 µM; in test [8], more than 25 µM; in [9], 10.1 µM; in test [10] it was more than 25 µM. The TGI in test [1] was more than 25 µM; in [2], more than 25 µM; in test [3], more than 23.9 µM; in test [4] it was more than 25 µM; in test [5], more than 25 µM; in test [6], more than 25 µM. In addition, the TGI in test [7], in [8], in [9] and in test [10] was more than 25 µM each time.
`COC(=O)C1=C(C)N(NC(=O)OC(C)(C)C)C(=O)C1=P(c1ccccc1)(c1ccccc1)c1ccccc1`: the TGI in [1], in test [2], in test [3], in test [4], in test [5] and in test [6] was more than 100 µM each time. In addition, the TGI in test [7], in test [8], in test [9] and in [10] was more than 100 µM in each case.
